This is an account of results in US7772251B2, “N-sulphonylated amino acid derivatives, method for the production and use thereof” (The Medicines Company (Leipzig) GmbH, priority 2003, dated 2010).

In the first test the test system is matriptase-expressing colon carcinoma cell line DLD-1. Put plainly: Inhibition of invasive growth (Matrigel invasion assay). In kind it is cell-based. To be noted: proHGF-stimulated; inhibitor 30 μM; 48 hours; FIG. 1. The text has this:
A common test system for invasive growth at the cellular level is the Matrigel invasion assay. This entails cells being applied to an artificial extracellular matrix and investigation of how many cells migrate through the latter within a defined period.
It is shown here by way of example for the matriptase inhibitors 37 and 54 that invasive growth is influenced and the migration of matriptase-expressing colon carcinoma cell line DLD-1 through Matrigel is inhibited:
The wells of a ‘Transwell’ plate were each coated with 10 μg of Matrigel and 160 000 DLD-1 cells (Dexter et al, Cancer Research 39: 1020-1025 (1979)) in 100 μl of medium (RPMI 1640, with 2% Ultroser HY serum substituted) were applied to each, invasive growth was stimulated by adding ProHGF in 400 μl of medium with and without inhibitor (30 μM). After incubation at 37° C. and 5% CO2 for 48 hours, the cells which had migrated through the matrix were fixed, stained and photographed at 100× magnification.
For `N=C(N)NCCC1CCN(C(=O)[C@H](Cc2cccc(C(=N)N)c2)NS(=O)(=O)c2ccc3ccccc3c2)CC1.O=C(O)C(F)(F)F.O=C(O)C(F)(F)F` [Compound 37, 2-Nas-Phe(3-Am) 4(guanidinoethyl)piperidide], the “inhibition of migration/invasion of DLD-1 cells through Matrigel” value was “inhibited”.

The test system of the next test is matriptase-expressing prostate carcinoma cells (PC-3). Put plainly: Inhibition of proHGF-induced cell scattering (scatter assay). The class given is cell-based. The conditions noted are these: proHGF-stimulated; inhibitor 3 μM; 6 days; FIG. 2. An excerpt: Because of its ability to induce the detachment of cells from an isolated assemblage and the dissemination of the cells, HGF is also referred to as scatter factor. This function can be detected at the cellular level with the aid of the so-called scatter assay. This entails the cells being seeded and their dissemination stimulated by the addition of HGF being recorded after a defined time. […] It is shown below by way of example for the matriptase inhibitors 37 and 54 that activation of proHGF by cellular matriptase is prevented and the scattering of proHGF-stimulated cells is reduced.
For this purpose, 500 matriptase-expressing prostate carcinoma cells (PC-3) were seeded in each well of a 96-well plate and incubated (37° C., 5% CO2) in 100 μl of medium without fetal calf serum (Nut Mix. F-12, 2% Ultroser HY) overnight, and then the scattering was stimulated by adding proHGF with and without matriptase inhibitors (3 μM). After 6 days, the cells were fixed and stained, and representative sections were photographed at 100× magnification.
Consider `N=C(N)NCCC1CCN(C(=O)[C@H](Cc2cccc(C(=N)N)c2)NS(=O)(=O)c2ccc3ccccc3c2)CC1.O=C(O)C(F)(F)F.O=C(O)C(F)(F)F` [Compound 37, 2-Nas-Phe(3-Am) 4(guanidinoethyl)piperidide], for which the “inhibition of proHGF-induced scattering of PC-3 cells” value was “inhibit the proHGF-induced scattering of PC-3 cells”.

The target of another test is T1, matriptase (Homo sapiens, UniProt Q9Y5Y6).
T1 construct: Met-Lys-(His)6 (N, cleaved yes); made in house; host or cells: Escherichia coli BL21 (DE3), vector pET24
T1 sequence (Q9Y5Y6 615-854 limits assumed): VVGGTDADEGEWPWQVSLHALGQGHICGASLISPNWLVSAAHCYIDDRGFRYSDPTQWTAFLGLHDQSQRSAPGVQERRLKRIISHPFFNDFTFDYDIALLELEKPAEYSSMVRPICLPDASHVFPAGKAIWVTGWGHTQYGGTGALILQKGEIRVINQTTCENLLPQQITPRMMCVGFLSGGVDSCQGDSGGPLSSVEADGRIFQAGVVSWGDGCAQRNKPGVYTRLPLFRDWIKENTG
In words: Determination of Ki values for the inhibition of matriptase (chromogenic substrate CH3SO2-D-HHT-Gly-Arg-pNA). In kind it is biochemical. To be noted: 25° C, pH 8.0, Dixon method, average of three determinations. On the procedure:
Preparation of the Catalytic Domain of Matriptase
The steps were in detail:
Activation: Since a correctly processed N terminus is a precondition for the activity of serine proteases, it was necessary to delete the peptide MK(His)6 to activate the refolded matriptase. For this purpose, the refolding mixture was incubated with 2.5 mU per 50 μg of protein of activated DAPase™ (Qiagen) at 30° C. for 2 h, and the activated matriptase was separated from the non-activated matriptase and the DAPase by metal chelate chromatography.
The proteolytic activity was detected by cleavage of the chromogenic substrate Pefachrome tPA (Pentapharm).
As for “2,4,6-triisopropylphenylsulfonyl-Phe(3-Am)-iNip-DAE-H [Compound 3]”, the Ki is 53 nM. In other words, the double-digit nanomolar range.
As to “2,4,6-triisopropylphenylsulfonyl-Phe(3Am)-iNip-NH—CH2—CH2-guanidino [Compound 34]”, the Ki was found to be 140 nM.
On the same count and under the same terms, for `N=C(N)c1cccc(CC(NS(=O)(=O)c2ccc3c(c2)C(=O)c2ccccc2C3=O)C(=O)N2CCN(C(=O)CCN)CC2)c1` (stereo not drawn) [Compound 2] the value was 160 nM; for `CC(C)c1cc(C(C)C)c(S(=O)(=O)NC(Cc2cccc(C(=N)N)c2)C(=O)N2CCN(C(=O)CCCNC(=N)N)CC2)c(C(C)C)c1` (stereo not drawn) [Compound 7], 56 nM.
Still for that read-out and setting: for `N=C(N)c1cccc(C[C@H](NS(=O)(=O)c2ccc3cc4ccccc4cc3c2)C(=O)N2CCN(C(=O)CCN)CC2)c1` [Compound 10, anthracenesulfonyl-Phe(3-Am)-Pzd-β-Ala] the value was 270 nM; for `N=C(N)NCCC(=O)N1CCN(C(=O)[C@H](Cc2cccc(C(=N)N)c2)NS(=O)(=O)c2ccc3cc4ccccc4cc3c2)CC1` [Compound 11, anthracenesulfonyl-Phe(3-Am)-Pzd-CO—CH2—CH2-guanidino], 44 nM; for `N=C(N)c1cccc(CC(NS(=O)(=O)c2ccc3ccccc3c2)C(=O)N2CCN(C(=O)CCN)CC2)c1` (stereo not drawn) [Compound 12], 830 nM.
In the case of `N=C(N)c1cccc(CC(NS(=O)(=O)c2ccc3c(c2)CCCC3)C(=O)N2CCN(C(=O)CCN)CC2)c1` (stereo not drawn) [Compound 14], the Ki was determined as 400 nM.
The same measure, in the same setting: for `N=C(N)NCCC(=O)N1CCN(C(=O)C(Cc2cccc(C(=N)N)c2)NS(=O)(=O)c2ccc3c(c2)CCCC3)CC1` (stereo not drawn) [Compound 15] the value was 300 nM.
On the same count and under the same terms, for `N=C(N)c1cccc(CC(NS(=O)(=O)c2cccc3c2CCCC3)C(=O)N2CCN(C(=O)CCN)CC2)c1` (stereo not drawn) [Compound 16] the value was 990 nM; for `N=C(N)c1cccc(CC(NS(=O)(=O)c2ccc(C3CCCCC3)cc2)C(=O)N2CCN(C(=O)CCN)CC2)c1` (stereo not drawn) [Compound 17], 140 nM.
The same measure, in the same setting: for `N=C(N)c1cccc(CC(NS(=O)(=O)c2ccc(-c3ccccc3)cc2)C(=O)N2CCN(C(=O)CCN)CC2)c1` (stereo not drawn) [Compound 19] the value was 600 nM; for `CC(C)(C)c1ccc(S(=O)(=O)NC(Cc2cccc(C(=N)N)c2)C(=O)N2CCN(C(=O)CCN)CC2)cc1` (stereo not drawn) [Compound 21], 470 nM; for `CC(C)(C)c1ccc(S(=O)(=O)NC(Cc2cccc(C(=N)N)c2)C(=O)N2CCN(C(=O)CCNC(=N)N)CC2)cc1` (stereo not drawn) [Compound 22], 200 nM.
`Cc1c(C)c(S(=O)(=O)NC(Cc2cccc(C(=N)N)c2)C(=O)N2CCN(C(=O)CCN)CC2)c(C)c2c1OC(C)(C)C2` (stereo not drawn) [Compound 23] displayed a Ki of 3300 nM.
Regarding `N=C(N)c1cccc(CC(NS(=O)(=O)Cc2ccc3ccccc3c2)C(=O)N2CCN(C(=O)CCN)CC2)c1` (stereo not drawn) [Compound 25], the Ki is 2400 nM.
On the same count and under the same terms, for `N=C(N)NCCC(=O)N1CCN(C(=O)C(Cc2cccc(C(=N)N)c2)NS(=O)(=O)Cc2ccc3ccccc3c2)CC1` (stereo not drawn) [Compound 26] the value was 400 nM.
For the compound `N=C(N)c1cccc(CC(NS(=O)(=O)c2ccc3c(c2)C(=O)c2ccccc2C3=O)C(=O)N2CCN(C(=O)C3CNC3)CC2)c1` (stereo not drawn) [Compound 27], the affinity corresponds to a Ki of 460 nM. This Ki and that of the compound before are within 1.5-fold of each other.
On the same count and under the same terms, for `N=C(N)NCCNC(=O)C1CCN(C(=O)C(Cc2cccc(C(=N)N)c2)NS(=O)(=O)c2ccc3c(c2)C(O)c2ccccc2C3O)CC1` (stereo not drawn) [Compound 32] the value was 9.8 nM; for `N=C(N)CCNC(=O)C1CCN(C(=O)C(Cc2cccc(C(=N)N)c2)NS(=O)(=O)c2ccc3ccccc3c2)CC1` (stereo not drawn) [Compound 35], 160 nM.
Still for that read-out and setting: for `N=C(N)c1cccc(C[C@H](NS(=O)(=O)c2ccc3ccccc3c2)C(=O)N2CCC(CCN)CC2)c1` [Compound 36, 2-Nas-Phe(3-Am) 4(aminoethyl)piperidide] the value was 110 nM; for `N=C(N)c1cccc(CC(NS(=O)(=O)c2cccc3ccccc23)C(=O)N2CCC(CCN)CC2)c1` (stereo not drawn) [Compound 39], 170 nM; for `N=C(N)c1cccc(CC(NC(=O)CNS(=O)(=O)c2ccc3ccccc3c2)C(=O)N2CCN(C(=O)CCN)CC2)c1` (stereo not drawn) [Compound 40], 7200 nM.
Still for that read-out and setting: for `N=C(N)NCCC1CCN(C(=O)C(Cc2cccc(C(=N)N)c2)NS(=O)(=O)c2cccc3ccccc23)CC1` (stereo not drawn) [Compound 41] the value was 74 nM.
In turn, `N=C(N)c1cccc(CC(NS(=O)(=O)CCc2cccc3ccccc23)C(=O)N2CCC(CCN)CC2)c1` (stereo not drawn) [Compound 42] returned an inhibitory constant (Ki) of 360 nM.
On the same count and under the same terms, for `N=C(N)NCCC1CCN(C(=O)C(Cc2cccc(C(=N)N)c2)NS(=O)(=O)CCc2cccc3ccccc23)CC1` (stereo not drawn) [Compound 43] the value was 180 nM; for `N=C(N)c1cccc(CC(NC(=O)CNS(=O)(=O)c2ccc3ccccc3c2)C(=O)N2CCC(CCN)CC2)c1` (stereo not drawn) [Compound 44], 21000 nM.
On the same count and under the same terms, for `N=C(N)c1cccc(CC(NS(=O)(=O)c2ccc(C3CCCCC3)cc2)C(=O)N2CCC(CCN)CC2)c1` (stereo not drawn) [Compound 45] the value was 140 nM; for `N=C(N)c1cccc(CC(NC(=O)CNS(=O)(=O)c2ccc3ccccc3c2)C(=O)N2CCC(C(=O)NCCCNC(=O)OCc3ccccc3)CC2)c1` (stereo not drawn) [Compound 47], 3900 nM.
On the same count and under the same terms, for `N=C(N)c1cccc(CC(NC(=O)CNS(=O)(=O)c2ccc3ccccc3c2)C(=O)N2CCC(C(=O)NCCCN)CC2)c1` (stereo not drawn) [Compound 48] the value was 360 nM; for `N=C(N)CCNC(=O)C1CCN(C(=O)C(Cc2cccc(C(=N)N)c2)NC(=O)CNS(=O)(=O)c2ccc3ccccc3c2)CC1` (stereo not drawn) [Compound 49], 160 nM.
In turn, `N=C(N)c1cccc(CC(NC(=O)CNS(=O)(=O)c2ccc(S(=O)(=O)N3CCOCC3)cc2)C(=O)N2CCN(C(=O)CCN)CC2)c1` (stereo not drawn) [Compound 50] showed a Ki of 3500 nM.
`N=C(N)NCCC(=O)N1CCN(C(=O)C(Cc2cccc(C(=N)N)c2)NC(=O)CNS(=O)(=O)c2ccc(S(=O)(=O)N3CCOCC3)cc2)CC1` (stereo not drawn) [Compound 51] displayed a Ki of 890 nM.
On the same count and under the same terms, for `N=C(N)c1cccc(CC(NS(=O)(=O)c2ccc(C3CCCCC3)cc2)C(=O)N2CCC(C(=O)N3CCN(C(=N)N)CC3)CC2)c1` (stereo not drawn) [Compound 54] the value was 32 nM.
Still for that read-out and setting: for `N=C(N)c1cccc(CC(NS(=O)(=O)c2ccc(C3CCCCC3)cc2)C(=O)N2CCN(C(=N)N)CC2)c1` (stereo not drawn) [Compound 55] the value was 980 nM; for `N=C(N)c1cccc(CC(NS(=O)(=O)c2ccc(C3CCCCC3)cc2)C(=O)N2CCNCC2)c1` (stereo not drawn) [Compound 58], 550 nM.
On the same count and under the same terms, for `N=C(N)c1cccc(CC(NS(=O)(=O)c2ccc(C3CCCCC3)cc2)C(=O)N2CCN(C(=O)C3CCNCC3)CC2)c1` (stereo not drawn) [Compound 60] the value was 310 nM.
Compound `N=C(N)CC(=O)N1CCN(C(=O)C(Cc2cccc(C(=N)N)c2)NS(=O)(=O)c2ccc(C3CCCCC3)cc2)CC1` (stereo not drawn) [Compound 61] had a Ki of 380 nM.
Compound `N=C(N)CC(=O)N1CCN(C(=O)C(Cc2cccc(C(=N)N)c2)NS(=O)(=O)c2ccc3ccccc3c2)CC1` (stereo not drawn) [Compound 62] registered a Ki of 1100 nM.
On the same count and under the same terms, for `CC(C)c1cc(C(C)C)c(S(=O)(=O)NC(Cc2cccc(C(=N)N)c2)C(=O)N2CCN(C(=O)C3CCN(C(=O)OC(C)(C)C)CC3)CC2)c(C(C)C)c1` (stereo not drawn) [Compound 65] the value was 830 nM; for `N=C(N)c1cccc(CC(NS(=O)(=O)c2ccc3ccccc3c2)C(=O)N2CC(C(=O)N3CCNCC3)C2)c1` (stereo not drawn) [Compound 66], 13000 nM.
Still for that read-out and setting: for `N=C(N)c1cccc(CC(NS(=O)(=O)c2ccc3ccccc3c2)C(=O)N2CC(C(=O)N3CCN(C(=N)N)CC3)C2)c1` (stereo not drawn) [Compound 67] the value was 3400 nM; for `N=C(N)NCCC1CCN(C(=O)C(Cc2cccc(C(=N)N)c2)NC(=O)CNS(=O)(=O)c2ccc3c(c2)Cc2ccccc2C3)CC1` (stereo not drawn) [Compound 68], 38 nM.
